We go through 5 molecules from DBAASP.

In general, MIC refers to the least concentration at which growth counts as inhibited. A lower MIC goes with inhibition by little substance.

Common to all, as to assay: ≥ marks a high value that may be exact or a test limit, other limits are often not marked, values filed in µg/mL are converted to µM
Assay [1] relates to Klebsiella pneumoniae NCIMB 13218.
Assay [2] concerns Staphylococcus aureus RN4220.
In assay [3] the test system is Staphylococcus aureus Newman.
Assay [4] concerns Staphylococcus aureus NCTC 8325-4.
Assay [5] has as its system Staphylococcus aureus SA113.
The subject of assay [6] is Cronobacter sakazakii ATCC BAA-894.
Assay [7] concerns Pseudomonas fluorescens NCIMB 9046.
Assay [8] deals with Staphylococcus aureus RF122.
Assay [9] relates to Escherichia coli NCIMB 11843.
Assay [10] relates to Cronobacter sakazakii DSM 4485.
For assay [11], the system named is Cronobacter sakazakii DPC 6440.
Assay [12] has as its system Salmonella enterica subsp. enterica serovar Typhimurium LT2.
Assay [13] concerns Cronobacter muytjensii ATCC 51329.
In assay [14] the test system is Staphylococcus aureus ATCC 43300.
Assay [15] deals with Escherichia coli NCTC 12923.
For assay [16], the system named is Pseudomonas aeruginosa ATCC 9027.
Assay [17] has as its system Pseudomonas aeruginosa ATCC 27853.
Assay [18] deals with Staphylococcus aureus ATCC 29213.
Assay [19] has as its system Staphylococcus aureus ATCC 9144.
Assay [20] relates to Klebsiella pneumoniae ATCC 13883.
The subject of assay [21] is Klebsiella pneumoniae NCTC 13368.
The test system of assay [22] is Escherichia coli ATCC 25922.
Assay [23] has as its system Pseudomonas aeruginosa PAO1.
For assay [24], the system named is Enterococcus faecalis ATCC 19433.
For assay [25], the system named is Acinetobacter baumannii ATCC 17978.
The subject of assay [26] is Staphylococcus epidermidis ATCC 12228.
Assay [27] deals with Staphylococcus aureus USA 300.
Assay [28] concerns Pseudomonas aeruginosa ATCC BAA-2114.
The subject of assay [29] is Staphylococcus aureus ATCC 33591.
Assay [30] relates to Salmonella enterica subsp. enterica serovar Choleraesuis ATCC 10708.
Another assay concerns Escherichia coli DL7.
Assay [31] concerns Klebsiella aerogenes ATCC 13048.
The test system of a further assay is Bacillus subtilis PS832.
The test system of assay [32] is Pseudomonas aeruginosa ATCC 10419.
Assay [33] has as its system Pseudomonas aeruginosa LCGE.
For assay [34], the system named is Pseudomonas aeruginosa LCCE.
The subject of assay [35] is Pseudomonas aeruginosa ATCC 21630.
Assay [36] relates to Pseudomonas aeruginosa ATCC 21625.
The test system of assay [37] is Salmonella enterica subsp. enterica serovar Typhimurium C77-31.
Assay [38] deals with Pseudomonas aeruginosa LC.
Assay [39] concerns Pseudomonas aeruginosa LCCI.
Assay [40] relates to Bacillus subtilis ATCC 9372.
In assay [41] the test system is Burkholderia thailandensis.
In assay [42] the test system is Bacillus anthracis Sterne 34F2.

Structures are written as SMILES. Converted amounts (≈) assume the structure as drawn. “And” between values parts separate entries of the source, which are not always exact repeats. Equal entries are not always repeated.

As to `CC(C)C[C@H](NC(=O)CNC(=O)[C@H](CCC(N)=O)NC(=O)[C@H](Cc1cnc[nH]1)NC(=O)[C@H](CCCCN)NC(=O)[C@H](C)N)C(=O)N1CCC[C@H]1C(=O)N[C@@H](CCC(N)=O)C(=O)N[C@@H](CCC(=O)O)C(=O)O` [AKHQGLPQE], the MIC in assay [1] was at least 2500 µM; in assay [2] it was at least 2500 µM; in assay [3] it was at least 2500 µM; in assay [4], at least 1250 µM; in assay [5], at least 2500 µM; in assay [6], at least 1250 µM. Also, the MIC in assay [7] was at least 2500 µM; in [8] it was at least 2500 µM; in assay [9] it was at least 2500 µM; in assay [10] it was at least 1250 µM; in [11] it was at least 1250 µM; in [12], at least 2500 µM. The MIC in assay [13] is at least 1250 µM.
For `CC[C@H](C)[C@H](NC(=O)[C@H](C)NC(=O)[C@H](CCCCN)NC(=O)[C@@H]1CCCN1C(=O)[C@@H](NC(=O)[C@H](CC(C)C)NC(=O)[C@H](CCCCN)NC(=O)[C@H](Cc1ccccc1)NC(=O)[C@H](CC(C)C)NC(=O)[C@@H](N)Cc1ccccc1)[C@@H](C)CC)C(=O)N[C@@H](CCCCN)C(=O)N[C@@H](CCCCN)C(=O)N[C@@H](CC(C)C)C(=O)N[C@H](C(=O)N[C@@H](CO)C(=O)N[C@@H](CCCCN)C(=O)N[C@@H](Cc1ccccc1)C(=O)N[C@@H](CCCCN)C(=O)O)[C@@H](C)CC` [FLFKLIPKAIKKLISKFK], the MIC in assay [14] was 5 µM (≈ 10.8 µg/mL); in assay [15], 1.85 µM (≈ 4 µg/mL); in assay [16], 5 µM (≈ 10.8 µg/mL); in assay [17], 35 µM (≈ 75.7 µg/mL); in assay [18] it was 5 µM and 3 µM; in assay [19], 1.85 µM (≈ 4 µg/mL). In addition, the MIC in assay [20] turned out to be 5 µM (≈ 10.8 µg/mL); in [21], 7.4 µM (≈ 16 µg/mL); in assay [22] it was 7.5 µM (≈ 16.2 µg/mL); in assay [23], 14.8 µM (≈ 32 µg/mL); in assay [24], 5 µM (≈ 10.8 µg/mL); in [25] it was 1.85 µM (≈ 4 µg/mL). In addition, the MIC was 5 µM (≈ 10.8 µg/mL) in [26]; 3.7 µM (≈ 8 µg/mL) in assay [27]; at least 35 µM in assay [28]; 5 µM and 3 µM in [29]; 7.5 µM (≈ 16.2 µg/mL) in [30].
As to `CC(C)C[C@H](NC(=O)CNC(=O)[C@H](C)NC(=O)[C@H](CCCN=C(N)N)NC(=O)[C@H](Cc1cnc[nH]1)NC(=O)CNC(=O)CN)C(=O)N[C@@H](CCC(N)=O)C(=O)N[C@@H](Cc1ccccc1)C(=O)N1CCC[C@H]1C(=O)N[C@H](C(=O)NCC(=O)N[C@@H](CCCN=C(N)N)C(=O)N[C@H](C(=O)N[C@@H](Cc1cnc[nH]1)C(=O)N[C@@H](CCCN=C(N)N)C(=O)N[C@@H](CC(C)C)C(=O)N[C@@H](CC(C)C)C(=O)N[C@@H](CCCN=C(N)N)C(=O)N[C@@H](CCCCN)C(N)=O)C(C)C)C(C)C` [GGHRAGLQFPVGRVHRLLRK], the minimum inhibitory concentration (MIC) was 16 µM and 8 µM against Escherichia coli DL7; at least 32 µM in assay [31]; 16 µM (≈ 36.1 µg/mL) in assay [26]; 4 µM (≈ 9.01 µg/mL) in the assay on Bacillus subtilis PS832.
As for `CC[C@H](C)[C@H](NC(=O)[C@H](CCCCN)NC(=O)[C@H](CCCCN)NC(=O)[C@H](CC(C)C)NC(=O)[C@H](CCCN=C(N)N)NC(=O)[C@H](CCCCN)NC(=O)[C@H](CCCN=C(N)N)NC(=O)[C@H](Cc1ccccc1)NC(=O)[C@H](CCCCN)NC(=O)[C@H](CCCCN)NC(=O)[C@H](CCCN=C(N)N)NC(=O)[C@H](CC(C)C)NC(=O)[C@H](CCCN=C(N)N)NC(=O)[C@H](CCCN=C(N)N)NC(=O)[C@H](Cc1ccccc1)NC(=O)[C@@H](N)CCCN=C(N)N)C(N)=O` [RFRRLRKKFRKRLKKI], the MIC in assay [32] was at least 256 µM; in assay [33], at least 256 µM; in assay [34], at least 256 µM; in assay [17], 256 µM (≈ 571 µg/mL); in assay [18], 128 µM (≈ 285 µg/mL); in assay [35] it was at least 256 µM. In addition, the MIC in assay [36] was at least 256 µM; in assay [22], 64 µM (≈ 143 µg/mL); in [37], at least 128 µM; in assay [26] it was 32 µM (≈ 71.3 µg/mL); in assay [38], at least 64 µM; in [39] it was at least 256 µM.
Regarding `CSCC[C@H](NC(=O)[C@H](CO)NC(=O)[C@H](Cc1ccc(O)cc1)NC(=O)[C@H](CO)NC(C)=O)C(=O)N[C@@H](CCC(=O)O)C(=O)N[C@@H](Cc1cnc[nH]1)C(=O)N[C@@H](Cc1ccccc1)C(=O)N[C@@H](CCCN=C(N)N)C(=O)N[C@@H](Cc1c[nH]c2ccccc12)C(=O)NCC(=O)N[C@@H](CCCCN)C(=O)N1CCC[C@H]1C(=O)N[C@H](C(N)=O)C(C)C` [SYSMEHFRWGKPV], the MIC in [40] is at least 100 µM; in [41], at least 50 µM; in assay [42], at least 100 µM.
